In ChEMBL document CHEMBL6134817, “Novel gut-restricted bivalent agonists targeting mucosal 5-HT4R: Design, synthesis, and biological evaluation” (Eur J Med Chem, 2025):
pEC50, pIC50, pKi: −log10 of the molar value.

Legend:
[1] = target: Voltage-gated inwardly rectifying potassium channel KCNH2 (Homo sapiens, UniProt Q12809); assay: Inhibition of hERG; format: toxicity
[2] = target: T1, 5-hydroxytryptamine receptor 4 (Homo sapiens, UniProt Q13639); assay: Agonist activity at full-length human 5-HT4R stably expressed in HEK293 cells assessed as increase in intracellular cAMP level incubated for 30 mins under dark condition by reporter gene assay relative to control; format: functional, cell-based
[3] = Permeability of compound assessed as compound recovery at 10 uM incubated for 4 hrs by PAMPA; format: ADME; conditions: read-out: Drug recovery
[4] = Apparent permeability coefficient of compound at 10 uM incubated for 4 hrs by PAMPA; format: ADME
[5] = target: T1, 5-hydroxytryptamine receptor 4; assay: Agonist activity at full-length human 5-HT4R stably expressed in HEK293 cells assessed as increase in intracellular cAMP level incubated for 30 mins under dark condition by reporter gene assay; format: functional, cell-based
[6] = target: T1, 5-hydroxytryptamine receptor 4; assay: Displacement of [3H]-GR113808 from full-length human 5-HT4R stably expressed in HEK293 cell membrane by MicroBeta2 Reader analysis; format: cell membranes

T1 sequence (Q13639 whole entry): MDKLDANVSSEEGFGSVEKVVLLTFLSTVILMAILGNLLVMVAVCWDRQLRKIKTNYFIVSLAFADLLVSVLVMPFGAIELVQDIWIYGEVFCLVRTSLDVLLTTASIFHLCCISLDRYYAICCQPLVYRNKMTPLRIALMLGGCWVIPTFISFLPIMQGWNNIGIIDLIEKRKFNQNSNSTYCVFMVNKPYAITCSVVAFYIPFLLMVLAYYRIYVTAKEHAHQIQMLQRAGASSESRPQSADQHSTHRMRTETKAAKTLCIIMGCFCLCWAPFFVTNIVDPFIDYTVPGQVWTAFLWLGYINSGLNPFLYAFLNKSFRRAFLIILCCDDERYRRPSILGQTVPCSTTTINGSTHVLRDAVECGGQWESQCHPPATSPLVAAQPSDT
Voltage-gated inwardly rectifying potassium channel KCNH2, sequence (Q12809 whole entry): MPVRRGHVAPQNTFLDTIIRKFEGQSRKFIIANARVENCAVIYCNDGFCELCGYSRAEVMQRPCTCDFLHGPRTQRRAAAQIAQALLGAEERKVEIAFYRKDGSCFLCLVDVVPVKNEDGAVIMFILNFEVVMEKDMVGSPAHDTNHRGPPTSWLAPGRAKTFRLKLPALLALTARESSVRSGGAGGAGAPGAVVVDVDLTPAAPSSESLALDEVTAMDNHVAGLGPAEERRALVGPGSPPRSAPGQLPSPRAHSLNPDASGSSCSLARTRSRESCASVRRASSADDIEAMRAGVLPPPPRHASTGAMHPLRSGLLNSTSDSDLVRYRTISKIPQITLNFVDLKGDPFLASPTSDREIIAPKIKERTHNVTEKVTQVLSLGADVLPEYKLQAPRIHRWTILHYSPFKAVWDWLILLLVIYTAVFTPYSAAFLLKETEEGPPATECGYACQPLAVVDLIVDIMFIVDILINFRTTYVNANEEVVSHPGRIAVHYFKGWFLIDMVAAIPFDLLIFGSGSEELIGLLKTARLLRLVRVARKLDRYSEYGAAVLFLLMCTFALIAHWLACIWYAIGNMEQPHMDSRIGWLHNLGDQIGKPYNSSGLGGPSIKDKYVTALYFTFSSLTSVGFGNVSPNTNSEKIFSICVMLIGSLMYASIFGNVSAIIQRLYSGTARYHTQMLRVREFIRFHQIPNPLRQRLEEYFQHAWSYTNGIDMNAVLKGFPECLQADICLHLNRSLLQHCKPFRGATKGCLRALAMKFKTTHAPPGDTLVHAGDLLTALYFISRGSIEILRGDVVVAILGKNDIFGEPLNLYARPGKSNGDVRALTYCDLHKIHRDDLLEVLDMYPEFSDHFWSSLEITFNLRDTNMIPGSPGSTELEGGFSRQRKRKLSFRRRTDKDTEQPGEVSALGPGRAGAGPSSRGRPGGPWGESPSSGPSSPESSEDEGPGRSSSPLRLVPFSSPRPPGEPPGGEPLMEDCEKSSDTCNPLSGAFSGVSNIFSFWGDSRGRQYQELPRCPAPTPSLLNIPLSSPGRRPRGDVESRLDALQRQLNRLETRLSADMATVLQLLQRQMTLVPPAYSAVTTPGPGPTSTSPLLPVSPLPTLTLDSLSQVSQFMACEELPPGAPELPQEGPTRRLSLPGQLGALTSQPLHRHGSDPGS

Row | SMILES | Efficacy ([2]; filed as agonist) [%] | pEC50 [5] | other results
1 | COCCCN1CCC(NC(=O)c2cc(Cl)c(N)c3c2OCC3)CC1 [PRUCALOPRIDE] | 110 |  | pIC50 [1]: 5.39; recovery at 4 h, 10 µM [3]: 92.4%; Papp at 4 h, 10 µM [4]: < 0.0185 ×10⁻⁶ cm/s
2 | Nc1c(Cl)cc(C(=O)NC2CCN(CCC(=O)NCCOCCOCCNC(=O)NCCCCNC(=O)NCCOCCOCCNC(=O)CCN3CCC(NC(=O)c4cc(Cl)c(N)c5c4OCC5)CC3)CC2)c2c1CCO2 | 112 | 8.19 | pKi [6]: 6.71
3 | Nc1c(Cl)cc(C(=O)NC2CCN(CCCC(=O)NCCOCCNC(=O)NCCOCCNC(=O)CCCN3CCC(NC(=O)c4cc(Cl)c(N)c5c4OCC5)CC3)CC2)c2c1CCO2 | 88.6 | 9.48 | pKi [6]: 7.12
4 | Nc1c(Cl)cc(C(=O)NC2CCN(CCC(=O)NCCOCCOCCNC(=O)Nc3ccc(NC(=O)NCCOCCOCCNC(=O)CCN4CCC(NC(=O)c5cc(Cl)c(N)c6c5OCC6)CC4)cc3)CC2)c2c1CCO2 | 89.8 | 7.98 | 
5 | CN(CCOCCNC(=O)NCCOCCN(C)C(=O)CCCN1CCC(NC(=O)c2cc(Cl)c(N)c3c2OCC3)CC1)C(=O)CCCN1CCC(NC(=O)c2cc(Cl)c(N)c3c2OCC3)CC1 | 95.3 | 10.15 | pKi [6]: 7.00
6 | Nc1c(Cl)cc(C(=O)NC2CCN(CCCCC(=O)NCCOCCOCCNC(=O)NCCCCNC(=O)NCCOCCOCCNC(=O)CCCCN3CCC(NC(=O)c4cc(Cl)c(N)c5c4OCC5)CC3)CC2)c2c1CCO2 | 102 | 8.52 | 
7 | Nc1c(Cl)cc(C(=O)NCC2CCN(CCCCCNC(=O)CCOCCOCCNC(=O)NCCCCNC(=O)NCCOCCOCCC(=O)NCCCCCN3CCC(CNC(=O)c4cc(Cl)c(N)c5c4OCC5)CC3)CC2)c2c1CCO2 | 113 | 9.77 | pKi [6]: 8.83
8 | Nc1c(Cl)cc(C(=O)NC2CCN(CCC(=O)NCCOCCOCCNC(=O)C(O)C(O)C(=O)NCCOCCOCCNC(=O)CCN3CCC(NC(=O)c4cc(Cl)c(N)c5c4OCC5)CC3)CC2)c2c1CCO2 (stereo not drawn) | 123 | 8.48 | 
9 | COc1cc(N)c(Cl)cc1C(=O)NC1CCN(CCC(=O)NCCOCCOCCNC(=O)NCCCCNC(=O)NCCOCCOCCNC(=O)CCN2CCC(NC(=O)c3cc(Cl)c(N)cc3OC)CC2)CC1 | 102 | 7.36 | 
10 | Nc1c(Cl)cc(C(=O)NC2CCN(CCC(=O)NCCOCCOCCNC(=O)N3CCN(C(=O)NCCOCCOCCNC(=O)CCN4CCC(NC(=O)c5cc(Cl)c(N)c6c5OCC6)CC4)CC3)CC2)c2c1CCO2 | 127 | 8.15 | 
11 | Nc1c(Cl)cc(C(=O)NC2CCN(CCC(=O)NCCCCCCCCNC(=O)NCCCCNC(=O)NCCCCCCCCNC(=O)CCN3CCC(NC(=O)c4cc(Cl)c(N)c5c4OCC5)CC3)CC2)c2c1CCO2 | 125 | 6.13 | 
12 | Nc1c(Cl)cc(C(=O)NC2CCN(CCNCCOCCOCCNC(=O)N[C@H]3CCCC[C@@H]3NC(=O)NCCOCCOCCNC(=O)CCN3CCC(NC(=O)c4cc(Cl)c(N)c5c4OCC5)CC3)CC2)c2c1CCO2 | 85.6 | 8.51 | 
13 | Nc1c(Cl)cc(C(=O)NCC2CCN(CCC(=O)NCCOCCOCCNC(=O)NCCCCNC(=O)NCCOCCOCCNC(=O)CCN3CCC(CNC(=O)c4cc(Cl)c(N)c5c4OCC5)CC3)CC2)c2c1CCO2 | 107 | 9.40 | pKi [6]: 7.26
14 | Nc1c(Cl)cc(C(=O)NC2CCN(CCC(=O)NCCOCCOCCNC(=O)COCC(=O)NCCOCCOCCNC(=O)CCN3CCC(NC(=O)c4cc(Cl)c(N)c5c4OCC5)CC3)CC2)c2c1CCO2 | 104 | 8.31 | 
15 | Nc1c(Cl)cc(C(=O)NC2CCN(CCCC(=O)NCCOCCOCCNC(=O)NCCCCNC(=O)NCCOCCOCCNC(=O)CCCN3CCC(NC(=O)c4cc(Cl)c(N)c5c4OCC5)CC3)CC2)c2c1CCO2 | 92.4 | 8.63 | 
16 | Nc1c(Cl)cc(C(=O)NC2CCN(CCC(=O)NCCOCCOCCNC(=O)N[C@H]3C[C@H](NC(=O)NCCOCCOCCNC(=O)CCN4CCC(NC(=O)c5cc(Cl)c(N)c6c5OCC6)CC4)C3)CC2)c2c1CCO2 | 115 | 8.58 | 
17 | Nc1c(Cl)cc(C(=O)NC2CCN(CCNC(=O)CCOCCOCCNC(=O)NCCCCNC(=O)NCCOCCOCCNC(=O)CCN3CCC(NC(=O)c4cc(Cl)c(N)c5c4OCC5)CC3)CC2)c2c1CCO2 | 89.7 | 8.29 | 
18 | O=C(CCN1CCC(COc2noc3c(O[C@@H]4CCOC4)cccc23)CC1)NCCOCCOCCNC(=O)NCCCCNC(=O)NCCOCCOCCNC(=O)CCN1CCC(COc2noc3cccc(O[C@@H]4CCOC4)c23)CC1 |  | < 5.00 | Efficacy [2]: 0.16%
19 | Nc1c(Cl)cc(C(=O)NC2CCN(CCC(=O)NCCOCCOCCNC(=O)C3(C(=O)NCCOCCOCCNC(=O)CCN4CCC(NC(=O)c5cc(Cl)c(N)c6c5OCC6)CC4)CCCCC3)CC2)c2c1CCO2 | 116 | 8.52 | 
20 | Nc1c(Cl)cc(C(=O)NC2CCN(CCC(=O)NCCOCCOCCNC(=O)CCC(=O)NCCOCCOCCNC(=O)CCN3CCC(NC(=O)c4cc(Cl)c(N)c5c4OCC5)CC3)CC2)c2c1CCO2 | 116 | 8.33 | 
21 | Nc1c(Cl)cc(C(=O)NC2CCN(CCC(=O)NCCOCCNC(=O)NCCOCCNC(=O)CCN3CCC(NC(=O)c4cc(Cl)c(N)c5c4OCC5)CC3)CC2)c2c1CCO2 | 123 | 9.07 | 
22 | Nc1c(Cl)cc(C(=O)NCC2CCN(CCCCCC(=O)NCCOCCOCNC(=O)N[C@H]3CC[C@H](NC(=O)NCOCCOCCNC(=O)CCCCCN4CCC(CNC(=O)c5cc(Cl)c(N)c6c5OCC6)CC4)CC3)CC2)c2c1CCO2 | 104 | 8.86 | 
23 | Nc1c(Cl)cc(C(=O)NC2CCN(CCC(=O)NCCOCCNC(=O)NCCCCNC(=O)NCCOCCNC(=O)CCN3CCC(NC(=O)c4cc(Cl)c(N)c5c4OCC5)CC3)CC2)c2c1CCO2 | 119 | 8.43 | 
